Counter-ions that a name gives are not always drawn.

As a reminder, the DC50 is the concentration giving 50% degradation.

The target of this assay is T1, AR (Homo sapiens, UniProt P10275).
T1 construct: endogenous in cells; host or cells: VCaP cells
T1 sequence (P10275 1-920): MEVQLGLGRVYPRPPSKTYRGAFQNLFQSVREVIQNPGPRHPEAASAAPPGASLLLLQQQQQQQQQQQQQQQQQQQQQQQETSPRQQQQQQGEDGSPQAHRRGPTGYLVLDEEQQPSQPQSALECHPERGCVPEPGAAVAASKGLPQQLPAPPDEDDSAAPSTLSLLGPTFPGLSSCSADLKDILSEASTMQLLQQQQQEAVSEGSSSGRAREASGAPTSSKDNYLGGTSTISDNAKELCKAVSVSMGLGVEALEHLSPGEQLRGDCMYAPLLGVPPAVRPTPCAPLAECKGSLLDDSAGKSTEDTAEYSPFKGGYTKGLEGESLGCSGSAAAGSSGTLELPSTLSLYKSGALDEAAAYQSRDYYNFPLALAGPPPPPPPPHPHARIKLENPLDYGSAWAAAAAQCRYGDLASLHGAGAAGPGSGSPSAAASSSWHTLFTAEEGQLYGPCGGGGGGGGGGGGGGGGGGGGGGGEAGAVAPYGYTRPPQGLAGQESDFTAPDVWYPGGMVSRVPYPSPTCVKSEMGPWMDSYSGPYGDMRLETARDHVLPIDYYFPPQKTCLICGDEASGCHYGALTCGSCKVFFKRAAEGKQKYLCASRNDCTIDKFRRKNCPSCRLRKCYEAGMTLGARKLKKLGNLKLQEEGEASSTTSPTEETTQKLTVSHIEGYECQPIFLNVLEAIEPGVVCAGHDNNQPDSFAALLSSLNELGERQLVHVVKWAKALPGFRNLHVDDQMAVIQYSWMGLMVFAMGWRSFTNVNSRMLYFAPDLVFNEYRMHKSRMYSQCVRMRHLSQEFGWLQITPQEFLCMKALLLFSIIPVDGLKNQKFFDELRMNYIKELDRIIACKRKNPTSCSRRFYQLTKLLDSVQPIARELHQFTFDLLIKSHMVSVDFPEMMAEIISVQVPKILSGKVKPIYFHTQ
The assay is described as follows: VCAP AR Degradation Assay. The settings on record: for Y (AR degradation efficiency, % of DMSO control): class symbols *; for DC50: class symbols A-C, read-out: DC50. In kind it is cell-based. An outline of the steps: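 AR protein in lysates quantified by sandwich ELISA after 24 h exposure of VCaP cells at 37 °C to 10 concentrations (1:3 steps, 5 μM top, final). Four-parameter logistic fit of percent-of-DMSO levels gave DC50 (50% degradation), EC50 and minimal AR level Y.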

`CCc1cc(N2C(=S)N(c3cnc(C#N)c(C(F)(F)F)c3)C(=O)C2(C)C)ccc1OCCN1CCN(CC(=O)Nc2cccc(NC3CCC(=O)NC3=O)c2)C2(CC2)C1` (centres unmarked) [Example 99, 2-(7-(2-(4-(3-(6-cyano-5-(trifluoromethyl)pyridin-3-yl)-5,5-dimethyl-4-oxo-2-thioxoimidazolidin-1-yl)-2-ethylphenoxy)ethyl)-4,7-diazaspiro[2.5]octan-4-yl)-N-(3-(2,6-dioxopiperidin-3-ylamino)phenyl)acetamide]: the “Y (AR degradation efficiency, % of DMSO control)” value is recorded as “* (0<Y<=25%)” and the DC50 was under 100 nM.

In the case of `CCc1cc(N2C(=S)N(c3ccc(C#N)c(C(F)(F)F)c3)C(=O)C2(C)C)ccc1OCCN1CCN(CC(=O)Nc2cc(Cl)cc(NC3CCC(=O)NC3=O)c2)CC1` (centres unmarked) [Example 40, hydrochloride], the “Y (AR degradation efficiency, % of DMSO control)” value is recorded as “* (0<Y<=25%)” and the DC50 is under 100 nM.

Turning to `CCc1cc(N2C(=S)N(c3ccc(C#N)c(C(F)(F)F)c3)C(=O)C2(C)C)ccc1OCCN1C[C@@H](C)N(CC(=O)Nc2cc(Cl)cc(NC3CCC(=O)NC3=O)c2)[C@H](C)C1` (stereo partly drawn) [Example 130, N-(3-chloro-5-(2,6-dioxopiperidin-3-ylamino)phenyl)-2-((2R,6R)-4-(2-(4-(3-(4-cyano-3-(trifluoromethyl)phenyl)-5,5-dimethyl-4-oxo-2-thioxoimidazolidin-1-yl)-2-ethylphenoxy)ethyl)-2,6-dimethylpiperazin-1-yl)acetamide], the “Y (AR degradation efficiency, % of DMSO control)” value is listed as “* (0<Y<=25%)” and the DC50 is under 100 nM.

`CCc1cc(N2C(=S)N(c3cnc(C#N)c(C(F)(F)F)c3)C(=O)C23CCC3)ccc1OCCN1CCN(CC(=O)Nc2cc(F)cc(NC3CCC(=O)NC3=O)c2)[C@H](C)C1` (stereo partly drawn) [Example 107, 2-((R)-4-(2-(4-(7-(6-cyano-5-(trifluoromethyl)pyridin-3-yl)-8-oxo-6-thioxo-5,7-diazaspiro[3.4]octan-5-yl)-2-ethylphenoxy)ethyl)-2-methylpiperazin-1-yl)-N-(3-(2,6-dioxopiperidin-3-ylamino)-5-fluorophenyl)acetamide]: the “Y (AR degradation efficiency, % of DMSO control)” value is on record as “* (0<Y<=25%)” and the DC50 is under 100 nM.

For `CCc1cc(N2C(=S)N(c3cnc(C#N)c(C(F)(F)F)c3)C(=O)C2(C)C)ccc1OCCN1CCN(CC(=O)Nc2cc(F)cc(NC3CCC(=O)NC3=O)c2)C2(CC2)C1` (centres unmarked) [Example 110, 2-(7-(2-(4-(3-(6-cyano-5-(trifluoromethyl)pyridin-3-yl)-5,5-dimethyl-4-oxo-2-thioxoimidazolidin-1-yl)-2-ethylphenoxy)ethyl)-4,7-diazaspiro[2.5]octan-4-yl)-N-(3-(2,6-dioxopiperidin-3-ylamino)-5-fluorophenyl)acetamide], the “Y (AR degradation efficiency, % of DMSO control)” value is listed as “* (0<Y<=25%)” and the DC50 was under 100 nM.

Take `C[C@@H]1CN(CCOc2ccc(N3C(=S)N(c4ccc(C#N)c(C(F)(F)F)c4)C(=O)C3(C)C)cc2CC(F)F)CCN1CC(=O)Nc1cccc(NC2CCC(=O)NC2=O)c1` (stereo partly drawn) [Example 153, 2-((R)-4-(2-(4-(3-(4-cyano-3-(trifluoromethyl)phenyl)-5,5-dimethyl-4-oxo-2-thioxoimidazolidin-1-yl)-2-(2,2-difluoroethyl)phenoxy)ethyl)-2-methylpiperazin-1-yl)-N-(3-(2,6-dioxopiperidin-3-ylamino)phenyl)acetamide]: the “Y (AR degradation efficiency, % of DMSO control)” value is recorded as “* (0<Y<=25%)” and the DC50 was under 100 nM.

Take `CCc1cc(N2C(=S)N(c3ccc(C#N)c(C(F)(F)F)c3)C(=O)C23CCC3)ccc1OCCN1CCN(CC(=O)Nc2cc(F)cc(NC3CCC(=O)NC3=O)c2)[C@H](C)C1` (stereo partly drawn) [Example 104, 2-((R)-4-(2-(4-(7-(4-cyano-3-(trifluoromethyl)phenyl)-8-oxo-6-thioxo-5,7-diazaspiro[3.4]octan-5-yl)-2-ethylphenoxy)ethyl)-2-methylpiperazin-1-yl)-N-(3-(2,6-dioxopiperidin-3-ylamino)-5-fluorophenyl)acetamide]: the “Y (AR degradation efficiency, % of DMSO control)” value was “* (0<Y<=25%)” and the DC50 was under 100 nM.

As to `CCc1cc(N2C(=S)N(c3ccc(C#N)c(C(F)(F)F)c3)C(=O)C23CCCC3)ccc1OCCN1C[C@@H](C)N(CC(=O)Nc2cccc(NC3CCC(=O)NC3=O)c2)[C@@H](C)C1` (stereo partly drawn) [Example 267, 2-((2S,6R)-4-(2-(4-(3-(4-cyano-3-(trifluoromethyl)phenyl)-4-oxo-2-thioxo-1,3-diazaspiro[4.4]nonan-1-yl)-2-ethylphenoxy)ethyl)-2,6-dimethylpiperazin-1-yl)-N-(3-(2,6-dioxopiperidin-3-ylamino)phenyl)acetamide], the “Y (AR degradation efficiency, % of DMSO control)” value is on record as “* (0<Y<=25%)” and the DC50 was under 100 nM.

For `CCc1cc(N2C(=S)N(c3ccc(C#N)c(C(F)(F)F)c3)C(=O)C2(C)C)ccc1OCCN1CCN(CC(=O)Nc2cccc(NC3CCC(=O)NC3=O)c2)C[C@@H]1C` (some centres unmarked) [Example 43, hydrochloride], the “Y (AR degradation efficiency, % of DMSO control)” value is on record as “* (0<Y<=25%)” and the DC50 is under 100 nM.

As to `CCc1cc(N2C(=S)N(c3cnc(C#N)c(C(F)(F)F)c3)C(=O)C2(C)C)ccc1OCCN1C[C@H]2CC[C@@H]1CN2CC(=O)Nc1cc(Cl)cc(NC2CCC(=O)NC2=O)c1` (stereo partly drawn) [Example 184, N-(3-chloro-5-(2,6-dioxopiperidin-3-ylamino)phenyl)-2-((1R,4R)-5-(2-(4-(3-(6-cyano-5-(trifluoromethyl)pyridin-3-yl)-5,5-dimethyl-4-oxo-2-thioxoimidazolidin-1-yl)-2-ethylphenoxy)ethyl)-2,5-diazabicyclo[2.2.2]octan-2-yl)acetamide], the “Y (AR degradation efficiency, % of DMSO control)” value was “** (25%<Y<=35%)” and the DC50 lay within 100 to 500 nM.

In the case of `CC1(C)C(=O)N(c2ccc(C#N)c(C(F)(F)F)c2)C(=S)N1c1ccc(OCCN2CCN(CC(=O)Nc3cc(F)cc(NC4CCC(=O)NC4=O)c3)CC2)c(F)c1` (centres unmarked) [Example 19, formate], the “Y (AR degradation efficiency, % of DMSO control)” value was “* (0<Y<=25%)” and the DC50 is under 100 nM.

As to `CCc1c(OCCN2C[C@@H](C)N(CC(=O)Nc3cccc(NC4CCC(=O)NC4=O)c3)[C@@H](C)C2)ccc(N2C(=S)N(c3ccc(C#N)c(C(F)(F)F)c3)C(=O)C2(C)C)c1F` (stereo partly drawn) [Example 271, 2-((2S,6R)-4-(2-(4-(3-(4-cyano-3-(trifluoromethyl)phenyl)-5,5-dimethyl-4-oxo-2-thioxoimidazolidin-1-yl)-2-ethyl-3-fluorophenoxy)ethyl)-2,6-dimethylpiperazin-1-yl)-N-(3-(2,6-dioxopiperidin-3-ylamino)phenyl)acetamide], the “Y (AR degradation efficiency, % of DMSO control)” value is reported as “* (0<Y<=25%)” and the DC50 is under 100 nM.

In the case of `CCC(C)c1cc(N2C(=S)N(c3ccc(C#N)c(C(F)(F)F)c3)C(=O)C2(C)C)ccc1OCCN1CCN(CC(=O)Nc2cccc(NC3CCC(=O)NC3=O)c2)CC1` (centres unmarked) [Example 29, hydrochloride], the “Y (AR degradation efficiency, % of DMSO control)” value is “** (25%<Y<=35%)” and the DC50 lay within 500 to 1000 nM.

Turning to `C[C@@H]1CN(CCOc2ccc(N3C(=S)N(c4ccc(C#N)c(C(F)(F)F)c4)C(=O)C3(C)C)cc2C(C)(F)F)C[C@H](C)N1CC(=O)Nc1cccc(NC2CCC(=O)NC2=O)c1` (stereo partly drawn) [Example 252, 2-((2S,6R)-4-(2-(4-(3-(4-cyano-3-(trifluoromethyl)phenyl)-5,5-dimethyl-4-oxo-2-thioxoimidazolidin-1-yl)-2-(1,1-difluoroethyl)phenoxy)ethyl)-2,6-dimethylpiperazin-1-yl)-N-(3-(2,6-dioxopiperidin-3-ylamino)phenyl)acetamide], the “Y (AR degradation efficiency, % of DMSO control)” value is listed as “* (0<Y<=25%)” and the half-maximal degradation concentration (DC50) is under 100 nM.

On to `CCc1cc(N2C(=S)N(c3cnc(C#N)c(C(F)(F)F)c3)C(=O)C23CCC3)ccc1OCCN1C[C@H]2CC[C@@H]1CN2CC(=O)Nc1cccc(NC2CCC(=O)NC2=O)c1` (stereo partly drawn) [Example 182, 2-((1R,4R)-5-(2-(4-(7-(6-cyano-5-(trifluoromethyl)pyridin-3-yl)-8-oxo-6-thioxo-5,7-diazaspiro[3.4]octan-5-yl)-2-ethylphenoxy)ethyl)-2,5-diazabicyclo[2.2.2]octan-2-yl)-N-(3-(2,6-dioxopiperidin-3-ylamino)phenyl)acetamide], for which the “Y (AR degradation efficiency, % of DMSO control)” value is reported as “** (25%<Y<=35%)” and the DC50 is 100 to 500 nM.

For the compound `CCc1cc(N2C(=S)N(c3cnc(C#N)c(C(F)(F)F)c3)C(=O)C2(C)C)ccc1O[C@H](C)CN1C[C@@H](C)N(CC(=O)Nc2cccc(NC3CCC(=O)NC3=O)c2)[C@@H](C)C1` (single isomer, unassigned) [Example 239], the “Y (AR degradation efficiency, % of DMSO control)” value is reported as “* (0<Y<=25%)” and the half-maximal degradation concentration (DC50) is under 100 nM.

The values are drawn from patent publication US12404241B2 (Celgene Corporation, priority 2018, dated 2025).
